Experimental data as given in patent US7981867B2, “Use of des-aspartate-angiotensin I” (priority 2005, dated 2011).
Where two headings read alike, the source gives them in different places. Marks after values point to notes of the source that are not given here.

How the values were obtained:
[1] = system: GLUT4; test: Insulin-induced translocation of GLUT4 to plasma membrane in skeletal muscle of diabetic GK rats; type: in vivo; conditions: oral treatment for 9 weeks; insulin 0.5 U/kg i.p., 30 minutes; Western blot
From the text: Upper panel: Representative Western blot of plasma membrane GLUT4 in skeletal muscle of des-aspartate-angiotensin I treated and non treated diabetic GK rats. Lower panel: Relative (to the non insulin stimulated samples) levels of plasma membrane GLUT4 in skeletal muscle of des-aspartate-angiotensin I treated and control diabetic GK rats.
The diabetic GK rats described in EXAMPLE 9 were similarly treated for another week. At 9 weeks of treatment, animals were fasted overnight and half the animals in each group were intraperitoneally administered with PBS and the other half with insulin (0.5 U/kg). After 30 minutes, the animals were sacrificed by cervical dislocation. Hind limb skeletal muscles were rapidly excised and frozen in liquid nitrogen. Muscle samples were stored at −80° C. until used. The hindlimb muscles were subsequently thawed over an ice pack and plasma membranes were prepared as described by Dombrowaski et al. Thirty μg of protein from the 25% interface of the discontinued sucrose gradient was subjected to SDS-PAGE, transferred to PVDF sheets and incubated with anti-GLUT4 polyclonal primary antibody (1:800), washed and followed by incubation with anti-goat secondary antibody (1:10,000). The bands were detected at 49 kDa. […]

[2] = system: Influenza A/Aichi/2/68 virus; type: in vivo, BALB/c mice
[3] = oral 1200 nmole/kg given as a single dose on Day 2 (n = 9), post infection day 11

**Q.** What does the source list for “des-aspartate-angiotensin I (RVYIHPFHL; Angiotensin-1; UniProt P01019 26-34, looked up, fragment) [endogenous angiotensin peptide derived from angiotensin I by a specific aminopeptidase; purchased from Bachem]”?
**A.** insulin-induced translocation of GLUT4 to the plasma membrane in skeletal muscle [1]: significantly enhances; Average Percentage Weight Change ([2]; oral 300 nmole/kg/day for 16 days (n = 5), post infection day 0 (taken as 100%)): 100%; Average Percentage Weight Change ([2]; oral 300 nmole/kg/day for 16 days (n = 5), post infection day 1): 102.1 ± 1.5%; Average Percentage Weight Change ([2]; oral 300 nmole/kg/day for 16 days (n = 5), post infection day 2): 96.2 ± 2.0%; Average Percentage Weight Change ([2]; oral 300 nmole/kg/day for 16 days (n = 5), post infection day 3): 90.8 ± 2.4%; Average Percentage Weight Change ([2]; oral 300 nmole/kg/day for 16 days (n = 5), post infection day 4): 85.8 ± 2.9%; Average Percentage Weight Change ([2]; oral 300 nmole/kg/day for 16 days (n = 5), post infection day 5): 83.2 ± 3.4%; number of animals that died on the day of recording ([2]; oral 300 nmole/kg/day for 16 days (n = 5), post infection day 6): 3; Average Percentage Weight Change ([2]; oral 300 nmole/kg/day for 16 days (n = 5), post infection day 6, two surviving mice, no SEM): 94.1%; Average Percentage Weight Change ([2]; oral 300 nmole/kg/day for 16 days (n = 5), post infection day 7, two surviving mice, no SEM): 95.7^# %; Average Percentage Weight Change ([2]; oral 300 nmole/kg/day for 16 days (n = 5), post infection day 8, two surviving mice, no SEM): 97.9^# %; Average Percentage Weight Change ([2]; oral 300 nmole/kg/day for 16 days (n = 5), post infection day 9, two surviving mice, no SEM): 98.7^# %; Average Percentage Weight Change ([2]; oral 300 nmole/kg/day for 16 days (n = 5), post infection day 10, two surviving mice, no SEM): 98.1^# %; Average Percentage Weight Change ([2]; oral 300 nmole/kg/day for 16 days (n = 5), post infection day 11, two surviving mice, no SEM): 97.4^# %; Average Percentage Weight Change ([2]; oral 300 nmole/kg/day for 16 days (n = 5), post infection day 12, two surviving mice, no SEM): 96.9^# %; Average Percentage Weight Change ([2]; oral 300 nmole/kg/day for 16 days (n = 5), post infection day 13, two surviving mice, no SEM): 96.8^# %; Average Percentage Weight Change ([2]; oral 300 nmole/kg/day for 16 days (n = 5), post infection day 14, two surviving mice, no SEM): 98.2^# %; Average Percentage Weight Change ([2]; oral 300 nmole/kg/day for 16 days (n = 5), post infection day 15, two surviving mice, no SEM): 99.6^# %; Average Percentage Weight Change ([2]; oral 300 nmole/kg/day for 16 days (n = 5), post infection day 16, two surviving mice, no SEM): 102.4^# %; antiviral activity (attenuation of weight loss, survival) ([2]; oral 600 nmole/kg administered daily for 8 days): Effective antiviral activity; Average Percentage Weight Change ([2]; oral 600 nmole/kg/day for 16 days (n = 9), post infection day 0 (taken as 100%)): 100%; Average Percentage Weight Change ([2]; oral 600 nmole/kg/day for 16 days (n = 9), post infection day 1): 98.7 ± 1.3%; Average Percentage Weight Change ([2]; oral 600 nmole/kg/day for 16 days (n = 9), post infection day 2): 95.8 ± 1.4%; Average Percentage Weight Change ([2]; oral 600 nmole/kg/day for 16 days (n = 9), post infection day 3): 92.0 ± 1.7%; Average Percentage Weight Change ([2]; oral 600 nmole/kg/day for 16 days (n = 9), post infection day 4): 92.4 ± 1.8 %; Average Percentage Weight Change ([2]; oral 600 nmole/kg/day for 16 days (n = 9), post infection day 5): 94.8 ± 1.8 %; Average Percentage Weight Change ([2]; oral 600 nmole/kg/day for 16 days (n = 9), post infection day 6): 95.5 ± 2.1 %; Average Percentage Weight Change ([2]; oral 600 nmole/kg/day for 16 days (n = 9), post infection day 7): 97.8 ± 2.6 %; Average Percentage Weight Change ([2]; oral 600 nmole/kg/day for 16 days (n = 9), post infection day 8): 96.7 ± 2.9%; Average Percentage Weight Change ([2]; oral 600 nmole/kg/day for 16 days (n = 9), post infection day 9): 96.3 ± 3.5%; Average Percentage Weight Change ([2]; oral 600 nmole/kg/day for 16 days (n = 9), post infection day 10): 95.6 ± 4.0%; Average Percentage Weight Change ([2]; oral 600 nmole/kg/day for 16 days (n = 9), post infection day 11): 95.4 ± 4.5%; Average Percentage Weight Change ([2]; oral 600 nmole/kg/day for 16 days (n = 9), post infection day 12): 95.1 ± 5.0%; Average Percentage Weight Change ([2]; oral 600 nmole/kg/day for 16 days (n = 9), post infection day 13): 95.5 ± 5.2%; Average Percentage Weight Change ([2]; oral 600 nmole/kg/day for 16 days (n = 9), post infection day 14): 99.1 ± 3.4%; Average Percentage Weight Change ([2]; oral 600 nmole/kg/day for 16 days (n = 9), post infection day 15): 100.3 ± 4.2%; Average Percentage Weight Change ([2]; oral 600 nmole/kg/day for 16 days (n = 9), post infection day 16): 97.0 ± 4.8%; Average Percentage Weight Change ([2]; oral 1200 nmole/kg given as a single dose on Day 2 (n = 9), post infection day 0 (taken as 100%)): 100%; Average Percentage Weight Change ([2]; oral 1200 nmole/kg given as a single dose on Day 2 (n = 9), post infection day 1): 103.5 ± 0.5%; Average Percentage Weight Change ([2]; oral 1200 nmole/kg given as a single dose on Day 2 (n = 9), post infection day 2): 96.8 ± 0.6%; Average Percentage Weight Change ([2]; oral 1200 nmole/kg given as a single dose on Day 2 (n = 9), post infection day 3): 95.1 ± 0.8 %; Average Percentage Weight Change ([2]; oral 1200 nmole/kg given as a single dose on Day 2 (n = 9), post infection day 4): 96.7 ± 1.2 %; Average Percentage Weight Change ([2]; oral 1200 nmole/kg given as a single dose on Day 2 (n = 9), post infection day 5): 96.3 ± 2.1 %; Average Percentage Weight Change ([2]; oral 1200 nmole/kg given as a single dose on Day 2 (n = 9), post infection day 6): 95.7 ± 3.1 %; Average Percentage Weight Change ([2]; oral 1200 nmole/kg given as a single dose on Day 2 (n = 9), post infection day 7): 97.8 ± 4.0 %; Average Percentage Weight Change ([2]; oral 1200 nmole/kg given as a single dose on Day 2 (n = 9), post infection day 8): 98.3 ± 4.3%; Average Percentage Weight Change ([2]; oral 1200 nmole/kg given as a single dose on Day 2 (n = 9), post infection day 9): 101.1 ± 4.7%; Average Percentage Weight Change ([2]; oral 1200 nmole/kg given as a single dose on Day 2 (n = 9), post infection day 10): 101.1 ± 4.8%; Average Percentage Weight Change [2, 3]: 105.9 ± 1.3%; number of animals that died on the day of recording [2, 3]: 1; Average Percentage Weight Change ([2]; oral 1200 nmole/kg given as a single dose on Day 2 (n = 9), post infection day 12): 106.1 ± 1.3%; Average Percentage Weight Change ([2]; oral 1200 nmole/kg given as a single dose on Day 2 (n = 9), post infection day 13): 108.1 ± 1.2%; Average Percentage Weight Change ([2]; oral 1200 nmole/kg given as a single dose on Day 2 (n = 9), post infection day 14): 107.2 ± 1.3%; Average Percentage Weight Change ([2]; oral 1200 nmole/kg given as a single dose on Day 2 (n = 9), post infection day 15): 109.4 ± 1.2%; Average Percentage Weight Change ([2]; oral 1200 nmole/kg given as a single dose on Day 2 (n = 9), post infection day 16): 108.4 ± 1.5%; antiviral activity (attenuation of weight loss, survival) ([2]; oral single dose of 1200 nmole/kg given on Day 2): Effective antiviral activity
